{"source": "patent US8759348B2", "about": "“Use of 4-(pyrrolidin-1-yl)quinoline compounds to kill clinically latent microorganisms” (Helperby Therapeutics Limited, priority 2007, dated 2014)", "test_system": "persister Mycobacterium tuberculosis", "type": "cell-based", "details": "10 μg/mL of test compound", "data": [{"smiles": "Cc1cc(N2CCC(Cc3ccccc3)C2)c2cc(Oc3ccccc3)ccc2n1.Cl", "note": "(stereo not shown) [Example 8, 4-(3-Benzylpyrrolidin-1-yl)-2-methyl-6-phenoxyquinoline hydrochloride]", "values": [{"measurement": "log kill", "value": 2.26}]}]}
